Source: patent US20230085307A1, “PYRIDAZINONE COMPOUND AND HERBICIDE” (NISSAN CHEMICAL CORPORATION, priority 2019, published 2023)

Assays:
[1] = test system: redroot pigweed; assay: Test Example 5: herbicidal effect by foliage application, plastic box (Table 20, symbol N); assay type: in vivo, redroot pigweed (Amaranthus retroflexus); settings: foliage application, 320 g/ha, evaluated three weeks after application
How it was run: (§1)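 Plants were sown into sterilized diluvial soil under about 1.5 cm cover and kept in a greenhouse at 25° C. to 30° C. Fourteen days on, foliage received an even spray of the diluted emulsion. Herbicidal or crop effect was judged three weeks afterwards.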

[2] = test system: velvetleaf; assay: Test Example 5: herbicidal effect by foliage application, plastic box (Table 20, symbol M); assay type: in vivo, velvetleaf (Abutilon theophrasti); settings: foliage application, 320 g/ha, evaluated three weeks after application
How it was run: as §1

[3] = test system: blackgrass; assay: Test Example 5: herbicidal effect by foliage application, plastic box (Table 20, symbol J); assay type: in vivo, blackgrass (Alopecurus myosuroides); settings: foliage application, 320 g/ha, evaluated three weeks after application
How it was run: as §1

[4] = test system: Japanese bulrush; assay: Test Example 1: herbicidal activity, application before weed generation under submerged conditions (Table 16, symbol B); assay type: in vivo, Japanese bulrush (Schoenoplectus juncoides); settings: 320 g/ha applied herbicide
How it was run: (§2)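 Submerged Wagner pots (alluvial soil, 4 cm water) sown with weed seeds and planted with 2.5-leaf rice seedlings; emulsifiable concentrate diluted in water applied to water surface on sowing day. Held in greenhouse at 25-30 °C; injury scored 0-5 by herbicidal rate after three weeks.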

[5] = test system: wild oat; assay: Test Example 5: herbicidal effect by foliage application, plastic box (Table 20, symbol I); assay type: in vivo, wild oat (Avena fatua); settings: foliage application, 320 g/ha, evaluated three weeks after application
How it was run: as §1

[6] = test system: windgrass; assay: Test Example 5: herbicidal effect by foliage application, plastic box (Table 20, symbol L); assay type: in vivo, windgrass (Apera spica-venti); settings: foliage application, 320 g/ha, evaluated three weeks after application
How it was run: as §1

[7] = test system: Chinese sprangletop; assay: Test Example 3: herbicidal effect by foliage application, Wagner pot (Table 18, symbol D); assay type: in vivo, chinese sprangletop (Leptochloa chinensis)
How it was run: (§3)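 Plants were sown in alluvial soil held under 0.1–0.5 cm standing water and grown 14 days in a greenhouse at 25–30 °C. An emulsifiable formulation, water-diluted to the set dose, was then sprayed onto the foliage, and effects were scored three weeks later using previously defined criteria.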

[8] = test system: Italian ryegrass; assay: Test Example 4: herbicidal effect by soil treatment (Table 19, symbol K); assay type: in vivo, Italian ryegrass (Lolium multiflorum)
How it was run: (§4)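 Pre-emergence style soil spray: seeds under ~1.5 cm sterilized diluvial soil received a uniform coat of emulsion diluted to the predetermined herbicide amount. Greenhouse 25–30° C; readout at week three on previously defined criteria.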

[9] = test system: wild oat; assay: Test Example 4: herbicidal effect by soil treatment (Table 19, symbol I); assay type: in vivo, wild oat (Avena fatua)
How it was run: as §4

[10] = test system: barnyard grass; assay: Test Example 5: herbicidal effect by foliage application, plastic box (Table 20, symbol H); assay type: in vivo, barnyard grass (Echinochloa crus-galli); settings: foliage application, 320 g/ha, evaluated three weeks after application
How it was run: as §1

[11] = test system: chickweed; assay: Test Example 4: herbicidal effect by soil treatment (Table 19, symbol P); assay type: in vivo, common chickweed (Stellaria media)
How it was run: as §4

[12] = test system: persian speedwell; assay: Test Example 4: herbicidal effect by soil treatment (Table 19, symbol R); assay type: in vivo, Persian speedwell (Veronica persica)
How it was run: as §4

[13] = test system: rice flat sedge; assay: Test Example 3: herbicidal effect by foliage application, Wagner pot (Table 18, symbol E); assay type: in vivo, rice flat sedge (Cyperus iria)
How it was run: as §3

[14] = test system: southern crabgrass; assay: Test Example 5: herbicidal effect by foliage application, plastic box (Table 20, symbol F); assay type: in vivo, southern crabgrass (Digitaria ciliaris); settings: foliage application, 320 g/ha, evaluated three weeks after application
How it was run: as §1

[15] = test system: barnyard grass; assay: Test Example 3: herbicidal effect by foliage application, Wagner pot (Table 18, symbol H); assay type: in vivo, barnyard grass (Echinochloa crus-galli)
How it was run: as §3

[16] = test system: oval-leafed pondweed; assay: Test Example 1: herbicidal activity, application before weed generation under submerged conditions (Table 16, symbol C); assay type: in vivo, oval-leafed pondweed (Monochoria vaginalis); settings: 320 g/ha applied herbicide
How it was run: as §2

[17] = test system: green foxtail; assay: Test Example 4: herbicidal effect by soil treatment (Table 19, symbol G); assay type: in vivo, green foxtail (Setaria viridis)
How it was run: as §4

[18] = test system: barnyard grass; assay: Test Example 4: herbicidal effect by soil treatment (Table 19, symbol H); assay type: in vivo, barnyard grass (Echinochloa crus-galli)
How it was run: as §4

[19] = test system: Italian ryegrass; assay: Test Example 5: herbicidal effect by foliage application, plastic box (Table 20, symbol K); assay type: in vivo, Italian ryegrass (Lolium multiflorum); settings: foliage application, 320 g/ha, evaluated three weeks after application
How it was run: as §1

[20] = test system: false cleavers; assay: Test Example 5: herbicidal effect by foliage application, plastic box (Table 20, symbol Q); assay type: in vivo, false cleavers (Galium spurium); settings: foliage application, 320 g/ha, evaluated three weeks after application
How it was run: as §1

[21] = test system: green foxtail; assay: Test Example 5: herbicidal effect by foliage application, plastic box (Table 20, symbol G); assay type: in vivo, green foxtail (Setaria viridis); settings: foliage application, 320 g/ha, evaluated three weeks after application
How it was run: as §1

[22] = test system: southern crabgrass; assay: Test Example 4: herbicidal effect by soil treatment (Table 19, symbol F); assay type: in vivo, southern crabgrass (Digitaria ciliaris)
How it was run: as §4

[23] = test system: chickweed; assay: Test Example 5: herbicidal effect by foliage application, plastic box (Table 20, symbol P); assay type: in vivo, common chickweed (Stellaria media); settings: foliage application, 320 g/ha, evaluated three weeks after application
How it was run: as §1

[24] = test system: windgrass; assay: Test Example 4: herbicidal effect by soil treatment (Table 19, symbol L); assay type: in vivo, windgrass (Apera spica-venti)
How it was run: as §4

[25] = test system: persian speedwell; assay: Test Example 5: herbicidal effect by foliage application, plastic box (Table 20, symbol R); assay type: in vivo, Persian speedwell (Veronica persica); settings: foliage application, 320 g/ha, evaluated three weeks after application
How it was run: as §1

[26] = test system: blackgrass; assay: Test Example 4: herbicidal effect by soil treatment (Table 19, symbol J); assay type: in vivo, blackgrass (Alopecurus myosuroides)
How it was run: as §4

[27] = test system: redroot pigweed; assay: Test Example 4: herbicidal effect by soil treatment (Table 19, symbol N); assay type: in vivo, redroot pigweed (Amaranthus retroflexus)
How it was run: as §4

[28] = test system: lambsquarters; assay: Test Example 4: herbicidal effect by soil treatment (Table 19, symbol O); assay type: in vivo, lambsquarters (Chenopodium album)
How it was run: as §4

[29] = test system: velvetleaf; assay: Test Example 4: herbicidal effect by soil treatment (Table 19, symbol M); assay type: in vivo, velvetleaf (Abutilon theophrasti)
How it was run: as §4

[30] = test system: late watergrass; assay: Test Example 1: herbicidal activity, application before weed generation under submerged conditions (Table 16, symbol A); assay type: in vivo, late watergrass (Echinochloa oryzicola); settings: 320 g/ha applied herbicide
How it was run: as §2

[31] = test system: lambsquarters; assay: Test Example 5: herbicidal effect by foliage application, plastic box (Table 20, symbol O); assay type: in vivo, lambsquarters (Chenopodium album); settings: foliage application, 320 g/ha, evaluated three weeks after application
How it was run: as §1

[32] = amount of applied herbicide 320 g/ha

Compound | herbicidal effect on N: redroot pigweed [1] | herbicidal effect on M: velvetleaf [2] | herbicidal effect on J: blackgrass [3] | Herbicidal effect on B: Japanese bulrush (grade 0-5) [4] | herbicidal effect on I: wild oat [5] | herbicidal effect on L: windgrass [6] | herbicidal effect on H: barnyard grass [10] | herbicidal effect on F: southern crabgrass [14] | Herbicidal effect on C: oval-leafed pondweed (grade 0-5) [16] | herbicidal effect on K: Italian ryegrass [19] | herbicidal effect on Q: false cleavers [20] | herbicidal effect on G: green foxtail [21] | herbicidal effect on P: chickweed [23] | herbicidal effect on R: persian speedwell [25] | Herbicidal effect on A: late watergrass (grade 0-5) [30] | herbicidal effect on O: lambsquarters [31] | further results
COc1cc(F)ccc1-c1sc2ccc(F)cc2c1-c1c(O)c(C)nn(C)c1=O [2-083] | 5 (Herbicidal rate of 90% or more (almost completely withered)) | 5 (Herbicidal rate of 90% or more (almost completely withered)) | 5 (Herbicidal rate of 90% or more (almost completely withered)) | 1 (Herbicidal rate of 5% or more and less than 20%) | 5 (Herbicidal rate of 90% or more (almost completely withered)) | 5 (Herbicidal rate of 90% or more (almost completely withered)) | 5 (Herbicidal rate of 90% or more (almost completely withered)) | 4 (Herbicidal rate of 70% or more and less than 90%) | 3 (Herbicidal rate of 40% or more and less than 70%) | 4 (Herbicidal rate of 70% or more and less than 90%) | 5 (Herbicidal rate of 90% or more (almost completely withered)) | 5 (Herbicidal rate of 90% or more (almost completely withered)) | 5 (Herbicidal rate of 90% or more (almost completely withered)) | 5 (Herbicidal rate of 90% or more (almost completely withered)) | 2 (Herbicidal rate of 20% or more and less than 40%) | 5 (Herbicidal rate of 90% or more (almost completely withered)) | herbicidal effect on D (Chinese sprangletop), rating 0-5 ([7]; 320 g/ha): 4 (Herbicidal rate of 70% or more and less than 90%); herbicidal effect rating, K: Italian ryegrass ([8]; 320 g/ha): 0 (Herbicidal rate of 5% or less (almost no effect)); herbicidal effect rating, I: wild oat ([9]; 320 g/ha): 3 (Herbicidal rate of 40% or more and less than 70%); herbicidal effect rating, P: chickweed ([11]; 320 g/ha): 4 (Herbicidal rate of 70% or more and less than 90%); herbicidal effect rating, R: persian speedwell ([12]; 320 g/ha): 4 (Herbicidal rate of 70% or more and less than 90%); herbicidal effect on E (rice flat sedge), rating 0-5 ([13]; 320 g/ha): 5 (Herbicidal rate of 90% or more (almost completely withered)); herbicidal effect on H (barnyard grass), rating 0-5 ([15]; 320 g/ha): 5 (Herbicidal rate of 90% or more (almost completely withered)); herbicidal effect rating, G: green foxtail ([17]; 320 g/ha): 2 (Herbicidal rate of 20% or more and less than 40%); herbicidal effect rating, H: barnyard grass ([18]; 320 g/ha): 1 (Herbicidal rate of 5% or more and less than 20%); herbicidal effect rating, F: southern crabgrass ([22]; 320 g/ha): 4 (Herbicidal rate of 70% or more and less than 90%); herbicidal effect rating, L: windgrass ([24]; 320 g/ha): 4 (Herbicidal rate of 70% or more and less than 90%); herbicidal effect rating, J: blackgrass ([26]; 320 g/ha): 5 (Herbicidal rate of 90% or more (almost completely withered)); herbicidal effect rating, N: redroot pigweed ([27]; 320 g/ha): 5 (Herbicidal rate of 90% or more (almost completely withered)); herbicidal effect rating, O: lambsquarters ([28]; 320 g/ha): 5 (Herbicidal rate of 90% or more (almost completely withered)); herbicidal effect rating, M: velvetleaf ([29]; 320 g/ha): 2 (Herbicidal rate of 20% or more and less than 40%)
Cc1nn(C)c(=O)c(-c2c(-c3ccc4c(c3)OCO4)sc3ccc(Cl)cc23)c1O [2-125] | 3 (Herbicidal rate of 40% or more and less than 70%) | 4 (Herbicidal rate of 70% or more and less than 90%) | 0 (Herbicidal rate of 5% or less (almost no effect)) | 2 (Herbicidal rate of 20% or more and less than 40%) | 0 (Herbicidal rate of 5% or less (almost no effect)) | 0 (Herbicidal rate of 5% or less (almost no effect)) | 2 (Herbicidal rate of 20% or more and less than 40%) | 0 (Herbicidal rate of 5% or less (almost no effect)) | 0 (Herbicidal rate of 5% or less (almost no effect)) | 0 (Herbicidal rate of 5% or less (almost no effect)) | 3 (Herbicidal rate of 40% or more and less than 70%) | 0 (Herbicidal rate of 5% or less (almost no effect)) | 5 (Herbicidal rate of 90% or more (almost completely withered)) | 5 (Herbicidal rate of 90% or more (almost completely withered)) | 0 (Herbicidal rate of 5% or less (almost no effect)) | 4 (Herbicidal rate of 70% or more and less than 90%) | herbicidal effect on D: Chinese sprangletop [7, 32]: 3 (Herbicidal rate of 40% or more and less than 70%); K: Italian ryegrass, herbicidal effect rating [8, 32]: 0 (Herbicidal rate of 5% or less (almost no effect)); I: wild oat, herbicidal effect rating [9, 32]: 0 (Herbicidal rate of 5% or less (almost no effect)); P: chickweed, herbicidal effect rating [11, 32]: 5 (Herbicidal rate of 90% or more (almost completely withered)); R: persian speedwell, herbicidal effect rating [12, 32]: 5 (Herbicidal rate of 90% or more (almost completely withered)); herbicidal effect on E: rice flat sedge [13, 32]: 5 (Herbicidal rate of 90% or more (almost completely withered)); herbicidal effect on H: barnyard grass [15, 32]: 4 (Herbicidal rate of 70% or more and less than 90%); G: green foxtail, herbicidal effect rating [17, 32]: 0 (Herbicidal rate of 5% or less (almost no effect)); H: barnyard grass, herbicidal effect rating [18, 32]: 0 (Herbicidal rate of 5% or less (almost no effect)); F: southern crabgrass, herbicidal effect rating [22, 32]: 0 (Herbicidal rate of 5% or less (almost no effect)); L: windgrass, herbicidal effect rating [24, 32]: 0 (Herbicidal rate of 5% or less (almost no effect)); J: blackgrass, herbicidal effect rating [26, 32]: 0 (Herbicidal rate of 5% or less (almost no effect)); N: redroot pigweed, herbicidal effect rating [27, 32]: 5 (Herbicidal rate of 90% or more (almost completely withered)); O: lambsquarters, herbicidal effect rating [28, 32]: 4 (Herbicidal rate of 70% or more and less than 90%); M: velvetleaf, herbicidal effect rating [29, 32]: 3 (Herbicidal rate of 40% or more and less than 70%)
